Here are results for 4 molecules from patent US20230310537A1, “TREATMENT OF VASCULAR EHLERS-DANLOS SYNDROME AND RELATED SYNDROMES” (The Johns Hopkins University, priority 2020, published 2023).

Each structure is given as a SMILES string. “Also recorded” adds a separate entry of the source.

One assay has as its system BL6 Col3a1^G938D/+ mice. In words: Kaplan-Meier survival / vascular rupture of drug-treated BL6 vEDS mice. The class given is in vivo. The conditions noted are these: for elevated risk of rupture caused by the p38 inhibitor, under concomitant treatment (Kaplan-Meier survival): BL6 Col3a1^G938D/+ mice receiving SB203580 IP plus test drug (cobimetinib via drinking water, ruboxistaurin via chow) from weaning for 30 days, vs SB203580 alone. The source says: Mice were maintained either on a C57BL/6J background (#000664, The Jackson Laboratory) or on a 129S6/SvEvTac background (#129SVE, Taconic Biosciences). Mice were considered to be 129S6/SvEvTac after backcrossing for a minimum of 4 generations. F1 and mixed mice were generated by interbreeding pure C57BL/6J and 129S6/SvEvTac mice. To identify the dominant genetic locus, mixed background wild-type females were bred to Col3a1^G938D/+ male mice on a pure BL6 background. Mice haploinsufficient or knockout for Map2k6 were originally obtained from the Jackson Laboratory (#008382) and backcrossed in the lab for a minimum of 10 generations. Restriction enzymes were used to detect the presence or absence of the Col3a1 mutation. The G209S mutation leads to the loss of an AvaII cut site and the G938D mutation leads to the gain of a BamHI cut site (AvaII R0153L; BamHI-HF R3136S, New England Biolabs). All mice found dead were assessed for cause of death by necropsy, noting in particular hemothorax and hemoperitoneum.
For drug trials in the Col3a1/^G938D/+ mice, mice were initiated on medication at weaning and continued until the end of the trial. Cobimetinib (GDC-0973/R0551404, Active Biochem) was dissolved in drinking water and filtered to reach a final concentration of 0.02 g/L giving an estimated dose of 2 mg/kg/day. Ruboxistaurin (LY333531 HCl, Selleck Chemicals) was mixed with powdered food (LabDiet) to give a concentration of 0.1 mg/g giving an estimated dose of 8 mg/kg/day. SB203580 (Selleck Chemicals) was administered at a dose of 5 mg/kg/d every 3 days by intraperitoneal injection. Animals receiving placebo (5% Tween in PBS) were also injected every 3 days by intraperitoneal injection.
Kaplan-Meier survival curves were compared using a log-rank (Mantel-Cox) test. Mice were censored only if unrelated to the outcome, such as for planned biochemical or histologic analysis or if the authors were directed to euthanize them by animal care staff, for malocclusion, fight wounds, or genital prolapse.

In assay [1] the test system is severe (Col3a1 G938D/+) and mild (Col3a1^G209S/+) mouse models of vEDS. The conditions noted are these: either vEDS mouse model; interventions that inhibit PKC/ERK activation; cited from earlier work.
For another assay, the system named is MFS mice. To be noted: therapies that attenuate TGF-β signaling and related pathways; cited from earlier work.
Another assay concerns pPKCβ. In words: Western blot of pPKCβ in proximal descending aortas of treated vEDS mice. The class given is in vivo. To be noted: aortas of Col3a1^G938D/+ mice, SB203580 treated vs placebo treated; p<0.01. How it is done:
(§1) Protein was extracted using an automatic bead homogenizer in conjunction with a Protein Extraction Kit (Full Moon Biosystems). All protein lysis buffers contained both PhosSTOP and Complete™, Mini, EDTA-free Protease Inhibitor Cocktail (Roche). Western blotting was performed using LI-COR buffer and species appropriate secondary antibodies conjugated to IR-dye700 or IRdye-800 (LI-COR Biosciences), according to the manufacturer's guidelines and analyzed using LI-COR Odyssey. The following primary antibodies were used: anti-β-Actin (8H10D10) (Cell Signaling Technology, 3700), anti-phospho ERK1/2 (Cell Signaling Technology, 4370), anti-PKCβ (phospho 5660) (Abcam, 75837), anti-phospho p38 (Cell Signaling Technology, 4511).
(§2) For drug trials in the Col3a1/^G938D/+ mice, mice were initiated on medication at weaning and continued until the end of the trial. Cobimetinib (GDC-0973/R0551404, Active Biochem) was dissolved in drinking water and filtered to reach a final concentration of 0.02 g/L giving an estimated dose of 2 mg/kg/day. Ruboxistaurin (LY333531 HCl, Selleck Chemicals) was mixed with powdered food (LabDiet) to give a concentration of 0.1 mg/g giving an estimated dose of 8 mg/kg/day. SB203580 (Selleck Chemicals) was administered at a dose of 5 mg/kg/d every 3 days by intraperitoneal injection. […]

Another assay has as its system pERK1/2. In words: Western blot of pERK1/2 in proximal descending aortas of treated vEDS mice. It is filed as in vivo. The conditions noted are these: aortas of Col3a1^G938D/+ mice, SB203580 treated vs placebo treated; p<0.01. As to the method: as §1, §2

As to `O=C(c1ccc(F)c(F)c1Nc1ccc(I)cc1F)N1CC(O)([C@@H]2CCCCN2)C1` [cobimetinib], the “elevated risk of rupture caused by the p38 inhibitor, under concomitant treatment (Kaplan-Meier survival)” value with BL6 Col3a1^G938D/+ mice is reported as “rescued”. For the same molecule, the “aortic disease rupture risk” value in assay [1] is “rescue aortic disease rupture risk”.

For `CCCCc1nc(Cl)c(CO)n1Cc1ccc(-c2ccccc2-c2nn[nH]n2)cc1` [losartan], in the assay with MFS mice, the aortic disease entry is given as “suppress aortic disease”.

As to `CN(C)C[C@@H]1CCn2cc(c3ccccc32)C2=C(C(=O)NC2=O)c2cn(c3ccccc23)CCO1` [ruboxistaurin], the “elevated risk of rupture caused by the p38 inhibitor, under concomitant treatment (Kaplan-Meier survival)” value with BL6 Col3a1^G938D/+ mice is on record as “rescued”. Moreover, the “aortic disease rupture risk” value in assay [1] is given as “rescue aortic disease rupture risk”.

With `C[S+]([O-])c1ccc(-c2nc(-c3ccncc3)c(-c3ccc(F)cc3)[nH]2)cc1` (centres unmarked) [SB203580], the “rate of death / vascular rupture risk (Kaplan-Meier survival vs placebo)” value in the assay on BL6 Col3a1^G938D/+ mice (BL6 Col3a1^G938D/+ mice, IP injection every 3 days starting at weaning, continuing for 40 days, Log-Rank p<0.01) is “significantly increased the rate of death; also recorded: increases vascular rupture risk”. In the assay on pPKCβ, the “PKC activation (pPKCβ levels normalized to β-actin)” value is on record as “increase”. For the same molecule, in the assay on pERK1/2, the “ERK activation (pERK1/2 levels normalized to β-actin)” value is recorded as “increase”.
